Measurements published in ChEMBL document CHEMBL1155339, “Characterization of alpha-nitromethyl ketone as a new zinc-binding group based on structural analysis of its complex with carboxypeptidase A” (Bioorg Med Chem Lett, 2009).

Molecular target: T1, Carboxypeptidase A1 (Homo sapiens, UniProt P15085)
T1 sequence (P15085 whole entry): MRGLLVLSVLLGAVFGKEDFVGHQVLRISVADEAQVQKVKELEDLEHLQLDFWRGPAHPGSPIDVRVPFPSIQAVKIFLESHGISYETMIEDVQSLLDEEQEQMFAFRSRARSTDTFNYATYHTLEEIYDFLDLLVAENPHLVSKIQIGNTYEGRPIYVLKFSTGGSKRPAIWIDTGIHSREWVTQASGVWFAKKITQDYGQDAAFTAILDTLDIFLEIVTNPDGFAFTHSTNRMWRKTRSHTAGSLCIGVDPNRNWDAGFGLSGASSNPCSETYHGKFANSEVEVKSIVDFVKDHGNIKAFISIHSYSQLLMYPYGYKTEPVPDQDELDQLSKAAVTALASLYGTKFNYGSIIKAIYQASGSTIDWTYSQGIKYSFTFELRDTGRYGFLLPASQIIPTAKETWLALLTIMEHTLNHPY
Test: Inhibition of Carboxypeptidase A assessed as amount of Cl-CPL consumed by UV spectrometer

SMILES	Ki
CC(=O)CC(Cc1ccccc1)C(=O)O (racemic)	207 µM
O=C(CBr)CC(Cc1ccccc1)C(=O)O (racemic)	15 µM
O=C(C[C@H](Cc1ccccc1)C(=O)O)C[N+](=O)[O-]	31 µM

Now from value to compound:

Ki	SMILES
0.43 µM	O=C(CC(Cc1ccccc1)C(=O)O)C[N+](=O)[O-] (racemic)
0.2 µM	O=C(O)C(CC(=O)C(F)(F)F)Cc1ccccc1 (racemic)
0.16 µM	O=C(C[C@@H](Cc1ccccc1)C(=O)O)C[N+](=O)[O-]

System: not listed separately
Test: Dissociation constant, pKa of the compound
Assay type: physicochemical

SMILES	pKa
O=C(O)C[N+](=O)[O-] [NITROACETIC ACID]	1.68
